How the values were obtained:
rice [1] = assay: Test B flooded paddy test; assay type: in vivo, Oryza sativa; settings: 1000 g ai/ha, visual rating, scale 0 to 100 (0 no effect, 100 complete control), 13 to 15 days
In short: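 Greenhouse test; postemergence application to plants at 1–4 leaves (2–18 cm); paddy species at 2 leaves; evaluated visually vs controls at 13–15 days; scale 0–100 (100 = complete control).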

Surinam grass = assay: Test B pre-/postemergence herbicide test; assay type: in vivo, Urochloa decumbens; settings: for Plant response rating, Surinam Grass: preemergence; for Surinam Grass plant response rating: postemergence, visual rating, scale 0 (no effect) to 100 (complete control)
In short: (§1)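 Greenhouse pot assay with simultaneous preemergence (treated seed) and postemergence (2–18 cm seedlings) applications of surfactant-containing, non-phytotoxic solvent formulations. Response scored visually 13–15 days later on a 0–100 scale, 100 meaning complete control.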

giant foxtail [2] = assay: Test A pre-/postemergence herbicide test; assay type: in vivo, Setaria faberi
In short: (§2)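 Plants are held in greenhouse about ten days after treatment, then compared with untreated controls and scored 0 (no effect) to 100 (complete control). Preemergence dosing is a directed soil spray on sown sandy loam; postemergence dosing is spray to runoff at 2–10 cm height.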

velvetleaf [3] = assay: Test B pre-/postemergence herbicide test; assay type: in vivo, Abutilon theophrasti; settings: for Plant response rating, Velvetleaf: preemergence; for Velvetleaf plant response rating: postemergence, visual rating, scale 0 (no effect) to 100 (complete control)
In short: as §1

velvetleaf [4] = assay: Test A pre-/postemergence herbicide test; assay type: in vivo, Abutilon theophrasti
In short: as §2

large crabgrass [5] = assay: Test A pre-/postemergence herbicide test; assay type: in vivo, Digitaria sanguinalis
In short: as §2

corn = assay: Test B pre-/postemergence herbicide test; assay type: in vivo, Zea mays; settings: for Plant response rating, Corn: preemergence; for Corn plant response rating: postemergence, visual rating, scale 0 (no effect) to 100 (complete control)
In short: as §1

redroot pigweed = assay: Test A pre-/postemergence herbicide test; assay type: in vivo, Amaranthus retroflexus
In short: as §2

barnyardgrass [6] = assay: Test B pre-/postemergence herbicide test; assay type: in vivo, Echinochloa crus-galli; settings: for Plant response rating, Barnyardgrass: preemergence; for Barnyardgrass plant response rating: postemergence, visual rating, scale 0 (no effect) to 100 (complete control)
In short: (§3)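 Response was scored visually 13 to 15 days after treatment against untreated greenhouse controls, 0 meaning no effect and 100 complete control. Formulations (solvent mixture plus surfactant) went onto soil after planting, onto foliage of 1- to 4-leaf plants, and onto 2-leaf plants in a flooded paddy set including rice and barnyardgrass.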

barnyardgrass [7] = assay: Test A pre-/postemergence herbicide test; assay type: in vivo, Echinochloa crus-galli
In short: as §2

large crabgrass [8] = assay: Test B pre-/postemergence herbicide test; assay type: in vivo, Digitaria sanguinalis; settings: for Plant response rating, Crabgrass, Large: preemergence; for Crabgrass, Large plant response rating: postemergence, visual rating, scale 0 (no effect) to 100 (complete control)
In short: as §1

wheat = assay: Test B postemergence herbicide test; assay type: in vivo, Triticum aestivum; set-up: key to Wheat plant response rating: 0 = no effect, 100 = complete control; settings: postemergence, visual rating, scale 0 (no effect) to 100 (complete control)
In short: (§4)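 Treated at 2-leaf (paddy) or 1–4-leaf, 2–18 cm (postemergence); greenhouse 13–15 d; visual score vs control, 0 none to 100 complete control; dash = not tested.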

lambsquarters = assay: Test B pre-/postemergence herbicide test; assay type: in vivo, Chenopodium album; settings: for Plant response rating, Lambsquarters: preemergence; for Lambsquarters plant response rating: postemergence, visual rating, scale 0 (no effect) to 100 (complete control)
In short: as §1

[9] = system: small flower umbrella sedge; assay: Test B flooded paddy test; assay type: in vivo, Cyperus difformis; settings: 1000 g ai/ha, visual rating, scale 0 to 100 (0 no effect, 100 complete control), 13 to 15 days
In short: (§5)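 Visual control ratings, 0–100 versus untreated controls, taken after 13 to 15 days in the greenhouse. Blackgrass received a postemergence spray at the 1- to 4-leaf stage (2–18 cm); ducksalad, umbrella sedge and barnyardgrass were flooded-paddy treated at 2 leaves.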

wild oat = assay: Test B postemergence herbicide test; assay type: in vivo, Avena fatua; settings: postemergence, visual rating, scale 0 (no effect) to 100 (complete control)
In short: as §4

barnyardgrass [10] = assay: Test B flooded paddy test; assay type: in vivo, Echinochloa crus-galli; settings: 1000 g ai/ha, visual rating, scale 0 to 100 (0 no effect, 100 complete control), 13 to 15 days
In short: as §5

morningglory [11] = assay: Test B pre-/postemergence herbicide test; assay type: in vivo, Ipomoea coccinea; settings: for Plant response rating, Morningglory: preemergence; for Morningglory plant response rating: postemergence, visual rating, scale 0 (no effect) to 100 (complete control)
In short: as §3

rice [12] = assay: Test B pre-/postemergence herbicide test; assay type: in vivo, Oryza sativa; settings: preemergence, 125 g ai/ha; 0 to 100 scale, 0 is no effect, 100 is complete control
In short: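 Species tested were Echinochloa crus-galli, Ipomoea coccinea, Xanthium strumarium and Oryza sativa, treated both before emergence and at the 1- to 4-leaf stage; rice and barnyardgrass were also tested under flooding at 2 leaves. Greenhouse incubation lasted 13–15 days before visual 0–100 scoring.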

ducksalad = assay: Test B flooded paddy test; assay type: in vivo, Heteranthera limosa; settings: 1000 g ai/ha, visual rating, scale 0 to 100 (0 no effect, 100 complete control), 13 to 15 days
In short: as §5

cocklebur = assay: Test B pre-/postemergence herbicide test; assay type: in vivo, Xanthium strumarium; settings: for Plant response rating, Cocklebur: preemergence; for Cocklebur plant response rating: postemergence, visual rating, scale 0 (no effect) to 100 (complete control)
In short: as §3

giant foxtail [13] = assay: Test B pre-/postemergence herbicide test; assay type: in vivo, Setaria faberi; settings: for Plant response rating, Foxtail, Giant: preemergence; for Foxtail, Giant plant response rating: postemergence, visual rating, scale 0 (no effect) to 100 (complete control)
In short: as §1

blackgrass = assay: Test B postemergence herbicide test; assay type: in vivo, Alopecurus myosuroides; settings: postemergence, visual rating, scale 0 (no effect) to 100 (complete control)
In short: as §5

morningglory [14] = assay: Test A pre-/postemergence herbicide test; assay type: in vivo, Ipomoea spp.
In short: as §2

pigweed = assay: Test B pre-/postemergence herbicide test; assay type: in vivo, Amaranthus retroflexus; settings: for Plant response rating, Pigweed: preemergence; for Pigweed plant response rating: postemergence, visual rating, scale 0 (no effect) to 100 (complete control)
In short: as §1

[15] = 500 g ai/ha, visual rating 0-100, 0 no effect, 100 complete control
[16] = 125 g ai/ha, 0 to 100 scale, 0 is no effect, 100 is complete control
[17] = Postemergence, 500 g ai/ha, 0 to 100 scale, 0 no effect, 100 complete control
[18] = Postemergence, 2000 g ai/ha, 0 to 100 scale, 0 no effect, 100 complete control
[19] = Preemergence, 500 g ai/ha, visual rating, 0 to 100 scale (0 no effect, 100 complete control)
[20] = Preemergence, 2000 g ai/ha, visual rating, 0 to 100 scale (0 no effect, 100 complete control)
[21] = preemergence, 500 g ai/ha, visual injury, 0 to 100 scale (0 no effect, 100 complete control)

Structure (SMILES): CC(C)NS(=O)(=O)c1cccc(NC(=O)c2cc(C(C)(C)C)nn2C)c1 [Compound 124]
- Rice plant response rating (rice [1]): 0
- Plant response rating, Surinam Grass (Surinam grass; [15]): 10
- Surinam Grass plant response rating (Surinam grass; 125 g ai/ha): 10
- Surinam Grass plant response rating (Surinam grass; 500 g ai/ha): 20
- Plant response rating, Surinam Grass (Surinam grass; [16]): 0
- Foxtail, Giant plant response rating (giant foxtail [2]; [17]): 0
- Plant response rating, Foxtail, Giant (giant foxtail [2]; [18]): 0
- Foxtail, Giant plant response rating (giant foxtail [2]; [19]): 0
- Foxtail, Giant plant response rating (giant foxtail [2]; [20]): 0
- Plant response rating, Velvetleaf (velvetleaf [3]; [15]): 0
- Velvetleaf plant response rating (velvetleaf [3]; 125 g ai/ha): 0
- Velvetleaf plant response rating (velvetleaf [3]; 500 g ai/ha): 10
- Plant response rating, Velvetleaf (velvetleaf [3]; [16]): 0
- Velvetleaf plant response rating (velvetleaf [4]; [17]): 10
- Plant response rating, Velvetleaf (velvetleaf [4]; [18]): 10
- Velvetleaf plant response rating (velvetleaf [4]; [20]): 15
- Velvetleaf plant response rating (velvetleaf [4]; [21]): 0
- Crabgrass, Large plant response rating (large crabgrass [5]; [17]): 10
- Plant response rating, Crabgrass, Large (large crabgrass [5]; [18]): 10
- Crabgrass, Large plant response rating (large crabgrass [5]; [19]): 30
- Crabgrass, Large plant response rating (large crabgrass [5]; [20]): 15
- Plant response rating, Corn (corn; [15]): 0
- Corn plant response rating (corn; 125 g ai/ha): 0
- Corn plant response rating (corn; 500 g ai/ha): 10
- Plant response rating, Corn (corn; [16]): 0
- Pigweed plant response rating (redroot pigweed; [17]): 30
- Plant response rating, Pigweed (redroot pigweed; [18]): 40
- Pigweed plant response rating (redroot pigweed; [20]): 75
- Pigweed plant response rating (redroot pigweed; [21]): 20
- Plant response rating, Barnyardgrass (barnyardgrass [6]; [15]): 10
- Barnyardgrass plant response rating (barnyardgrass [6]; 125 g ai/ha): 0
- Barnyardgrass plant response rating (barnyardgrass [6]; 500 g ai/ha): 0
- Plant response rating, Barnyardgrass (barnyardgrass [6]; [16]): 0
- Barnyardgrass plant response rating (barnyardgrass [7]; [17]): 0
- Plant response rating, Barnyardgrass (barnyardgrass [7]; [18]): 0
- Barnyardgrass plant response rating (barnyardgrass [7]; [19]): 0
- Barnyardgrass plant response rating (barnyardgrass [7]; [20]): 10
- Plant response rating, Crabgrass, Large (large crabgrass [8]; [15]): 0
- Crabgrass, Large plant response rating (large crabgrass [8]; 125 g ai/ha): 10
- Crabgrass, Large plant response rating (large crabgrass [8]; 500 g ai/ha): 10
- Plant response rating, Crabgrass, Large (large crabgrass [8]; [16]): 0
- Wheat plant response rating (wheat; 125 g ai/ha): 0
- Wheat plant response rating (wheat; 500 g ai/ha): 0
- Plant response rating, Lambsquarters (lambsquarters; [15]): 80
- Lambsquarters plant response rating (lambsquarters; 125 g ai/ha): 30
- Lambsquarters plant response rating (lambsquarters; 500 g ai/ha): 70
- Plant response rating, Lambsquarters (lambsquarters; [16]): 0
- Sedge, Umbrella plant response rating [9]: 0
- Oat, Wild plant response rating (wild oat; 125 g ai/ha): 0
- Oat, Wild plant response rating (wild oat; 500 g ai/ha): 10
- Barnyardgrass plant response rating (barnyardgrass [10]): 0
- Plant response rating, Morningglory (morningglory [11]; [15]): 0
- Morningglory plant response rating (morningglory [11]; 125 g ai/ha): 0
- Morningglory plant response rating (morningglory [11]; 500 g ai/ha): 10
- Plant response rating, Morningglory (morningglory [11]; [16]): 0
- Plant response rating, Rice (rice [12]): 0
- Ducksalad plant response rating (ducksalad): 70
- Plant response rating, Cocklebur (cocklebur; [15]): 0
- Cocklebur plant response rating (cocklebur; 125 g ai/ha): 0
- Cocklebur plant response rating (cocklebur; 500 g ai/ha): 10
- Plant response rating, Cocklebur (cocklebur; [16]): 0
- Plant response rating, Foxtail, Giant (giant foxtail [13]; [15]): 10
- Foxtail, Giant plant response rating (giant foxtail [13]; 125 g ai/ha): 0
- Foxtail, Giant plant response rating (giant foxtail [13]; 500 g ai/ha): 10
- Plant response rating, Foxtail, Giant (giant foxtail [13]; [16]): 0
- Blackgrass plant response rating (blackgrass; 125 g ai/ha): 0
- Blackgrass plant response rating (blackgrass; 500 g ai/ha): 0
- Morningglory plant response rating (morningglory [14]; [17]): 5
- Plant response rating, Morningglory (morningglory [14]; [18]): 0
- Morningglory plant response rating (morningglory [14]; [19]): 5
- Morningglory plant response rating (morningglory [14]; [20]): 15
- Plant response rating, Pigweed (pigweed; [15]): 90
- Pigweed plant response rating (pigweed; 125 g ai/ha): 20
- Pigweed plant response rating (pigweed; 500 g ai/ha): 70
- Plant response rating, Pigweed (pigweed; [16]): 30

Reference: patent US20060069132A1, “Azolecarboxamide herbicides” (priority 2004, published 2006)
